According to US9340543B2, “Helquat derivatives, preparation thereof, and use thereof as medicaments” (USTAV ORGANICKE CHEMIE A BIOCHEMIE AKADEMIE VED CR, V.V.I., priority 2013, dated 2016):

Experiments:
[1] = test system: CCRF-CEM; test: CellTiter-Glo luminescent cell viability assay (ATP quantification), CCRF-CEM; type: cell-based; conditions: acute lymphoblastic leukemia cells, 72 h treatment, viable cells by ATP luminescence
Description: (§1) Influence of the test compounds on viability (proliferation) of cell lines used was investigated in concentration range 0-100 μmol·l^−1.
Suspension cell line CCRF-CEM is a permanent in vitro culture of acute lymphoblastic leukemia. CCRF-CEM cell line was cultivated in RPMI 1640 medium (Sigma-Aldrich, cat. no. R8758) with addition of 2 mmol·l^−1 glutamine (Invitrogen, cat. no. 35050-038), 10% fetal bovine serum (FBS, Sigma-Aldrich, cat. no. F9665), 100 IU/ml peniciline, 100 μg/ml streptomycine (Sigma-Aldrich, cat. no. P0781). Passaging was performed 2-3× a week. Population doubling time of CCRF-CEM cell line was 20 h under the cultivation conditions used.
(§2) In order to test the sensitivity of the cell lines towards the studied helquats, cytotoxity test for cell viability assessment based on ATP quantification in cell lysates was used (CellTiter-Glo® Luminescent Cell Viability Assay, Promega, cat. no. G7571). In this test, ATP in cell lysates is detected using luciferase reaction. Luminescence intensity correlates with the ATP level and thus with quantity of metabolically active (viable) cells. IC50 value serves as the output, that is the concentration of the test compound which leads to 50% reduction in number of viable cells as compared to control, untreated population. To this end, IC50 value reflects efficiency of the test compound with regard to the given cell line.
(§3) Cells in the exponential growth phase were seeded into a 96-well microtiter plate were plated at 3000 cells per well. Each well contained 90 μl of cell suspension. The next day, 10 μl of 10× concentrated test compound solutions were added. The effect of helquats was investigated in concentration range 1 to 100 μmol·l^−1 (e.g. 1; 2.5; 5; 7.5; 10; 15; 25; 50 and 100 μmol·l^−1). Apart from the section containing the concentration series of the test compound, each well contained 2 control columns, the first with pure medium (so called blank) and the second with cells in medium without the test compounds (control). Into wells containing controls and blanks, volume of solvent (water) equal to the volume of added compound solutions was added. After 72 h of incubation with the test compounds viability was determined according to the manufacturer's instructions. In short: microtiter well plate was left 30 min to reach the room temperature after it has been removed from the incubator. Then, into each well, 100 μl of the prepared detection agent was added. Next, the well plate was shaken for 2 min to complete the full lysis. Next, after the well had been left in the dark for 15 min, the luminescence was measured in each well using luminometer (Tecan Genios, Austria).
(§4) IC50 value represents concentration of the test compound, which leads to 50% reduction of viable cells (inhibition of cell growth) after 72 h of the treatment. Each helquat concentration was tested in triplicates in a IC50 quantification and at least 3 independent IC50 quantification experiments were performed. IC50 values over 100 μmol·l^−1 were obtained by extrapolation of data measured in concentration range 0-100 μmol·l^−1 for the given helquat.

[2] = test system: MOLT-4; test: CellTiter-Glo luminescent cell viability assay (ATP quantification), MOLT-4; type: cell-based; conditions: acute lymfoblastic leukemia cells, 72 h treatment, viable cells by ATP luminescence
Description: as §1
(§5) Suspension cell line MOLT-4 is a permanent in vitro culture of acute lymfoblastic leukemia. Linie MOLT-4 cell line was cultivated in RPMI 1640 medium (Sigma-Aldrich, see above) with addition of 2 mmol glutamine (Invitrogen, see above), 10% fetal bovine serum (FBS, Sigma-Aldrich, see above), 100 IU/ml peniciline, 100 μg/ml streptomycine (Sigma-Aldrich, see above). Passaging was performed 2-3× a week. Population doubling time of MOLT-4 cell line was 25 h under the cultivation conditions used.
as §2, §3, §4

[3] = test system: HeLa; test: CellTiter-Glo luminescent cell viability assay (ATP quantification), HeLa; type: cell-based; conditions: cervical cancer cells, 72 h treatment, viable cells by ATP luminescence
Description: as §1
Adherent cell line HeLa is a permanent in vitro culture derived from cervical cancer. HeLa cell line was cultivated in RPMI 1640 medium (Dutch modification) (Sigma-Aldrich, cat. no. R7638) with addition of 2 mmol·l^−1 glutamine (Invitrogen, see above), 10% fetal bovine serum (FBS, Sigma-Aldrich, see above), 100 IU/ml peniciline, 100 μg/ml streptomycine (Sigma-Aldrich, see above). Passaging was performed twice a week. After washing of cells with sterile PBS the cells were released by 0.25% trypsin/EDTA (Sigma-Aldrich, cat. no. T4049) at 37° C. for 2 minutes. The trypsin was inactivated by addition of 2 volumes of complete medium, cells were then centrifuged (250×g, 5 min), the cell pellet was resuspended, and transferred in the amount needed into a new cultivation bottle with fresh medium. Population doubling time of […] cell line was 25 h under the cultivation conditions used.
as §2, §3, §4

[4] = test system: HUVEC; test: CellTiter-Glo luminescent cell viability assay (ATP quantification), HUVEC normal cells; type: cell-based, human; conditions: 72 h treatment
Description: as §1
Normal human endothelial cells from umbilical vein are adherent cells cultivated in plastic Petri dishes coated with collagen I. Into the cultivation medium (E-STIM™; BD Biosciences, cat. co. 355054) already containing 2% FBS (fetal bovine serum), hydrocortisone and heparin the following two further ingredients were added: epidermal growth factor (EGF, 5 μg) and mixture of factors facilitating growth of endothelial cells (ECGS, 100 mg). […] The cells were passaged after reaching 90% confluency by dissociation using 0.25% solution of trypsin/EDTA (1 ml; 3 min; 37° C.). After that 5 ml of complete cultivation medium E-STIM™ was added and the cells were centrifuged (180×g, 7 min), the pellet was resuspended, and transferred in the amount needed into a new Petri dish with fresh medium. The cells were used in experiments between the 3rd and the 8th passage after defreezing. Population doubling time of HUVEC cell line was 38 h under the cultivation conditions used.
as §2, §3, §4

[5] = test system: NHDF-Ad; test: CellTiter-Glo luminescent cell viability assay (ATP quantification), NHDF-Ad normal cells; type: cell-based; conditions: normal human dermal fibroblasts, 72 h treatment
Source text: as §1
Normal human dermal fibroblasts were cultivated without antibiotics in basal medium for fibroblasts (ATCC/LGC Standards, cat. no. PCS-201-030) with added “Fibroblast Growth Kit-Low serum” (ATCC/LGC Standards, cat. no. PCS-201-041) containing 2% FBS, L-glutamine, hydrocortisone, ascorbic acid, rh FGF beta, rh insulin. When 90% confluency was reached the fibroblasts were washed with sterile PBS (5 ml) and dissociated by addition of 0.25% solution of trypsin/EDTA (2 ml; 2 min; 37° C.). After that 5 ml of cultivation medium for fibroblasts was added and the cells were centrifuged (180×g, 7 min), the cell pellet was resuspended, and transferred in the amount needed into a new cultivation bottle with fresh medium. The same cell release procedure was applied when the cells were to be used in experiments. The cells were used in experiments between the 3rd and the 15th passage after defreeezing. Population doubling time of NHDF-Ad cell line was 33 h under the cultivation conditions used.
as §2, §3, §4

[6] = test system: HL-60; test: CellTiter-Glo luminescent cell viability assay (ATP quantification), HL-60; type: cell-based; conditions: Homo sapiens, HL-60; acute promyelocytic leukemia cells, 72 h treatment, viable cells by ATP luminescence
Description: as §1
as §5, with “HL-60” for “MOLT-4”, “promyelocytic” for “lymfoblastic”, “HL-60” for “Linie MOLT-4”, “mmol·l^−1” for “mmol”, “23” for “25”
as §2, §3, §4

[7] = test system: LoVo; test: CellTiter-Glo luminescent cell viability assay (ATP quantification), LoVo; type: cell-based; conditions: Homo sapiens, LoVo, colorectal carcinoma cells, 72 h treatment
Description: as §1
Adherent cell line LoVo is a permanent in vitro culture derived from tissue of a patient with colorectal carcinoma. LoVo cell line was cultivated in DMEM medium (Sigma-Aldrich, cat. no. D8437) with addition of 2 mmol·l^−1 glutamine (Invitrogen, see above), 10% fetal bovine serum (FBS, Sigma-Aldrich, see above), 100 IU/ml peniciline, 100 μg/ml streptomycine (Sigma-Aldrich, see above). Passaging was performed twice a week. After washing of cells with sterile PBS, the cells were released by 0.25% trypsin/EDTA (Sigma-Aldrich, see above) at 37° C. for 2 minutes. The trypsin was inactivated by addition of 2 volumes of complete medium, cells were then centrifuged (250×g, 5 min), resuspended, and transferred in the amount needed into a new cultivation bottle with fresh medium. Population doubling time of LoVo cell line was 39 h under the cultivation conditions used.
as §2, §3, §4

[8] = HUVEC, normal human endothelial cells, numeric bound, values over 100 obtained by extrapolation of data measured at 0-100 μmol·l−1
[9] = Fibroblast, viable cells by ATP luminescence, class symbols
[10] = Fibroblast, numeric bound, values over 100 obtained by extrapolation of data measured at 0-100 μmol·l−1
[11] = viable cells by ATP luminescence, class symbols
[12] = HUVEC, normal human endothelial cells from umbilical vein, viable cells by ATP luminescence, class symbols
[13] = numeric bound, values over 100 obtained by extrapolation of data measured at 0-100 μmol·l−1

SMILES	IC50 ([1]; Homo sapiens, CCRF-CEM) [µM]	IC50 ([2]; Homo sapiens, MOLT-4) [µM]	IC50 ([3]; Homo sapiens, HeLa) [µM]	IC50 [6] [µM]	IC50 [7, 11] [µM]	IC50 [7, 13] [µM]	IC50 [1] [µM]	IC50 [2] [µM]	IC50 [3] [µM]	IC50 [4, 8] [µM]	IC50 [5, 9] [µM]	IC50 [5, 10] [µM]	IC50 [4, 12] [µM]	IC50 ([4]; normal human endothelial cells, numeric bound, values over 100 obtained by extrapolation of data measured at 0-100 μmol·l−1) [µM]	IC50 [5, 11] [µM]
C(=C\c1cc[n+]2c(c1)-c1c(ccc3c1-c1c4ccccc4cc[n+]1CC3)CC2)/c1cc2c3c(c1)CCCN3CCC2 (racemic) [(rac)-20, (rac)-(E)-13-(2-(1,2,3,5,6,7-hexahydropyrido[3,2,1-ij]quinolin-9-yl)vinyl)-4,5,8,9-tetrahydroisoquinolino[2,1-k]pyrido[2,1-a][2,9]phenanthroline-3,10-diium trifluoromethanesulfonate]	11 to 50	11 to 50	11 to 50	–	51 to 150	–	–	–	–	–	51 to 150	–	51 to 150	–	–
CN(C)c1ccc(/C=C/c2cc[n+]3c(c2)-c2c(ccc4c2-c2cccc[n+]2CCC4)CCC3)cc1 (racemic) [(rac)-35, (rac)-(E)-2-(4-(dimethylamino)styryl)-6,7,8,11,12,13-hexahydrodipyrido[1,2-a:1′,2′-a′]benzo[2,1-c:3,4-c′]bisazepinediium trifluoromethanesulfonate]	51 to 150	51 to 150	51 to 150	–	–	> 150	–	–	–	> 150	–	> 150	–	–	–
CN(C)c1ccc(/C=C/c2cccc3[n+]2CCCc2ccc4c(c2-3)-c2cccc(/C=C/c3ccc(N(C)C)cc3)[n+]2CCC4)cc1 (racemic) [(rac)-41, (rac)-4,15-bis((E)-4-(dimethylamino)styryl)-6,7,8,11,12,13-hexahydro-dipyrido[1,2-a:1′,2′-a′]benzo[2,1-c:3,4-c′]bisazepinediium trifluoromethanesulfonate]	11 to 50	11 to 50	11 to 50	–	11 to 50	–	–	–	–	–	51 to 150	–	51 to 150	–	–
Cc1c(C)c2c(c3c1CC[n+]1ccc(/C=C/c4ccc(N(C)C)cc4)cc1-3)-c1c3ccccc3cc[n+]1CC2 [(P)-1, (P)-(E)-13-(4-(dimethylamino)styryl)-6,7-dimethyl-4,5,8,9-tetrahydroiso-quinolino[1,2-a]pyrido[1,2-k][2,9]phenanthroline-3,10-diium trifluoromethanesulfonate]	–	–	–	–	–	–	11 to 50	11 to 50	11 to 50	–	–	–	–	> 150	51 to 150
CN(C)c1ccc(/C=C/C=C/c2cc[n+]3c(c2)-c2c(ccc4c2-c2cccc[n+]2CC4)CC3)cc1 [compound 30, 2-((1E,3E)-4-(4-(dimethylamino)phenyl)buta-1,3-dien-1-yl)-6,7,10,11-tetrahydrodipyrido[2,1-a:1′,2′-k][2,9]phenanthroline-5,12-diium trifluoromethanesulfonate]	51 to 150	51 to 150	51 to 150	–	–	> 150	–	–	–	> 150	–	> 150	–	–	–

More lines, main results first:

IC50 ([1]; Homo sapiens, CCRF-CEM) [µM]	IC50 ([2]; Homo sapiens, MOLT-4) [µM]	IC50 ([3]; Homo sapiens, HeLa) [µM]	IC50 [6] [µM]	IC50 [7, 11] [µM]	IC50 [7, 13] [µM]	IC50 [1] [µM]	IC50 [2] [µM]	IC50 [3] [µM]	SMILES	IC50 [4, 8] [µM]	IC50 [5, 9] [µM]	IC50 [5, 10] [µM]	IC50 [4, 12] [µM]	IC50 ([4]; normal human endothelial cells, numeric bound, values over 100 obtained by extrapolation of data measured at 0-100 μmol·l−1) [µM]	IC50 [5, 11] [µM]
11 to 50	11 to 50	11 to 50	–	–	–	–	–	–	Cc1c(C)c2c(c3c1CC[n+]1ccc(/C=C/c4ccc(N(C)C)cc4)cc1-3)-c1c3ccccc3cc[n+]1CC2 (racemic) [(rac)-1, (rac)-(E)-13-(4-(dimethylamino)styryl)-6,7-dimethyl-4,5,8,9-tetrahydroiso-quinolino[1,2-a]pyrido[1,2-k][2,9]phenanthroline-3,10-diium trifluoromethanesulfonate]	> 150	51 to 150	–	–	–	–
< 10	11 to 50	11 to 50	11 to 50	–	–	–	–	–	COc1ccc2cc(/C=C/c3cc[n+]4c(c3)-c3c(c(C)c(C)c5c3-c3c6ccccc6cc[n+]3CC5)CC4)ccc2c1 (racemic) [(rac)-7, (rac)-(E)-13-(2-(6-methoxynaphthalene-2-yl)vinyl)-6,7-dimethyl-4,5,8,9-tetrahydroisoquinolino[1,2-a]pyrido[1,2-k][2,9]phenanthroline-3,10-diium trifluoromethanesulfonate]	> 150	–	> 150	–	–	–
